Test results taken from patent US8440720B2, “Methods of use of antiviral compounds” (Influmedix, Inc., priority 2009, dated 2013).

These compounds were tested against T1, M2(S31) (Influenza A virus, UniProt P0DOF5) (assay: Cell-free electrophysiology of M2 proton channels on solid supported membranes (IonGate SURFE2R)). Conditions: 25 μM compound, activation by pH jump 7.0 to 6.0, read-out: IonGate_M2(S31)_Screen % Inhibition at 25 μM.
T1 construct: expressed in transfected cells; host or cells: CHO cell membranes
T1 sequence (P0DOF5 whole entry): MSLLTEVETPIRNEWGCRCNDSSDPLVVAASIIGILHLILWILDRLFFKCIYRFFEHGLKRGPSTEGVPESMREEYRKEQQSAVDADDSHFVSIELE
Assay type: biochemical
Compound `NCC(O)C12CC3CC(CC(C3)C1)C2` (racemic) [Cpd 5] has an inhibition at 25 µM of 51 to 95%.
Compound `c1ncn(C23CC4CC(CC(C4)C2)C3)n1` [Cpd 1] has an inhibition at 25 µM of 11 to 50%.
`c1cn(C23CC4CC(CC(C4)C2)C3)cn1` [Cpd 2] was tested, and the inhibition at 25 µM was 11 to 50%.
Work on `Nc1nc(N)n(C23CC4CC(CC(C4)C2)C3)n1` [Cpd 3] yielded an inhibition at 25 µM of 11 to 50%.
In the case of `Nc1ccn(C23CC4CC(CC(C4)C2)C3)n1` [Cpd 4], the inhibition at 25 µM is reported as 11 to 50%.
`C1CNC(C23CC4CC(CC(C4)C2)C3)=N1` [Cpd 6] was tested, and the inhibition at 25 µM was 51 to 95%.
Compound `NCC12CC3CC(C1)C(O)C(C3)C2` (stereo not shown) [Cpd 7] has an inhibition at 25 µM of 11 to 50%.
For `NCC12CC3CC(C1)C(F)C(C3)C2` (stereo not shown) [Cpd 8, C-(4-Fluoro-adamantan-1-yl)-methylamine], the inhibition at 25 µM was 51 to 95%.
Work on `CC1(O)C2CC3CC1CC(CN)(C3)C2` (stereo not shown) [Cpd 11, 5-Aminomethyl-2-methyl-adamantan-2-ol] yielded an inhibition at 25 µM of 11 to 50%.
`NC12CC3CC(C1)CC(F)(C3)C2` [Cpd 12] gave an inhibition at 25 µM of 51 to 95%.
`NC12CC3CC(C1)C(F)C(C3)C2` (stereo not shown) [Cpd 13, 4-Fluoroadamantan-1-amine] showed an inhibition at 25 µM of 51 to 95%.
`NC12CC3CC(C1)C(O)C(C3)C2` (stereo not shown) [Cpd 14] was tested, and the inhibition at 25 µM was 11 to 50%.
Work on `NC12CC3CC(C1)C(=O)C(C3)C2` [Cpd 15] yielded an inhibition at 25 µM of 11 to 50%.
Work on `N#CC1C2CC3CC1CC(N)(C3)C2` (stereo not shown) [Cpd 16, 5-Amino-adamantane-2-carbonitrile] yielded an inhibition at 25 µM of 51 to 95%.
`NC12CC3CC(C1)C(F)(F)C(C3)C2` [Cpd 17, 4,4-Difluoro-adamantan-1-ylamine] gave an inhibition at 25 µM of 11 to 50%.
`CC1(F)C2CC3CC1CC(N)(C3)C2` (stereo not shown) [Cpd 18, 4-Fluoro-4-methyl-adamantan-1-ylamine] was tested, and the inhibition at 25 µM was 51 to 95%.
Compound `NC12CC3CC(C1)C(=S)C(C3)C2` [Cpd 19, 5-Amino-adamantane-2-thione] has an inhibition at 25 µM of 11 to 50%.
Work on `NC12CC3CC(C1)C(S)C(C3)C2` (stereo not shown) [Cpd 20, 5-Amino-adamantane-2-thiol] yielded an inhibition at 25 µM of 11 to 50%.
`NC12CC3CC(C1)C(CF)C(C3)C2` (stereo not shown) [Cpd 21, 4-Fluoromethyl-adamantan-1-ylamine] showed an inhibition at 25 µM of 51 to 95%.
In the case of `NC12CC3CC(C1)C(=NO)C(C3)C2` [Cpd 23, 5-Amino-adamantan-2-one oxime], the inhibition at 25 µM is reported as 11 to 50%.
For `NC12CC3CC(C1)C1(OCCO1)C(C3)C2` [Cpd 24], the inhibition at 25 µM was 11 to 50%.
Compound `COC1C2CC3CC1CC(CN)(C3)C2` (stereo not shown) [Cpd 25, C-(4-Methoxy-adamantan-1-yl)-methylamine] has an inhibition at 25 µM of 51 to 95%.
`N#CC1C2CC3CC1CC(CN)(C3)C2` (stereo not shown) [Cpd 26, 5-Aminomethyl-adamantane-2-carbonitrile] showed an inhibition at 25 µM of 51 to 95%.
`O=[N+]([O-])CC12CC3CC(C1)C(O)C(C3)C2` (stereo not shown) [Cpd 27, 5-Nitromethyl-adamantan-2-ol] was tested, and the inhibition at 25 µM was 11 to 50%.
For `O=[N+]([O-])CC12CC3CC(C1)C(F)C(C3)C2` (stereo not shown) [Cpd 28, 4-Fluoro-1-nitromethyl-adamantane], the inhibition at 25 µM was 11 to 50%.
In the case of `NC12CC3CC(C1)CC(S)(C3)C2` [Cpd 29], the inhibition at 25 µM is reported as 51 to 95%.
For `O=[N+]([O-])C12CC3CC(CC(F)(C3)C1)C2` [Cpd 30, 3-Fluoro-1-nitro-adamantane], the inhibition at 25 µM was 1 to 10%.
In the case of `N=C(N)NC12CC3CC(CC(F)(C3)C1)C2` [Cpd 31, N-(3-Fluoro-adamantan-1-yl)-guanidine], the inhibition at 25 µM is reported as 11 to 50%.
In the case of `COC12CC3CC(CC(N)(C3)C1)C2` [Cpd 32], the inhibition at 25 µM is reported as 1 to 10%.
With `NC12CC3CC(CC(C3)C1O)C2` (stereo not shown) [Cpd 34] the inhibition at 25 µM was 51 to 95%.
`CC1(O)C2CC3CC(C2)CC1(N)C3` (stereo not shown) [Cpd 35, 1-Amino-2-methyl-adamantan-2-ol] was tested, and the inhibition at 25 µM was 11 to 50%.
